Assays:
[1] = target: T1, Alpha-1A adrenergic receptor (Homo sapiens, UniProt P35348); type: functional, cell-based
T1 sequence (P35348 whole entry): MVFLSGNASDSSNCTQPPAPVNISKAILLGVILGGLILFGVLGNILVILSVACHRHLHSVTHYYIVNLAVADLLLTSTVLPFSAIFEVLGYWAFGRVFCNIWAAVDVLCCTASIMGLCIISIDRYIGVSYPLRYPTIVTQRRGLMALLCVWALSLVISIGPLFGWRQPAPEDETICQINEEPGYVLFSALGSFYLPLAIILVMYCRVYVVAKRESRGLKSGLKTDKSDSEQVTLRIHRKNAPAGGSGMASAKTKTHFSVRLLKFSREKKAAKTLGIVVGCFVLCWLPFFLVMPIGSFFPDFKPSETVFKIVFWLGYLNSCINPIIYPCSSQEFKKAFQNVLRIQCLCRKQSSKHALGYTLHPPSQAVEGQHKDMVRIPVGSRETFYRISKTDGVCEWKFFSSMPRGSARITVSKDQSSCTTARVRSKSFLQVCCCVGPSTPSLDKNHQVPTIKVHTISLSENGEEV

[2] = target: T2, Alpha-2A adrenergic receptor (Homo sapiens, UniProt P08913); type: functional, cell-based
T2 sequence (P08913 whole entry): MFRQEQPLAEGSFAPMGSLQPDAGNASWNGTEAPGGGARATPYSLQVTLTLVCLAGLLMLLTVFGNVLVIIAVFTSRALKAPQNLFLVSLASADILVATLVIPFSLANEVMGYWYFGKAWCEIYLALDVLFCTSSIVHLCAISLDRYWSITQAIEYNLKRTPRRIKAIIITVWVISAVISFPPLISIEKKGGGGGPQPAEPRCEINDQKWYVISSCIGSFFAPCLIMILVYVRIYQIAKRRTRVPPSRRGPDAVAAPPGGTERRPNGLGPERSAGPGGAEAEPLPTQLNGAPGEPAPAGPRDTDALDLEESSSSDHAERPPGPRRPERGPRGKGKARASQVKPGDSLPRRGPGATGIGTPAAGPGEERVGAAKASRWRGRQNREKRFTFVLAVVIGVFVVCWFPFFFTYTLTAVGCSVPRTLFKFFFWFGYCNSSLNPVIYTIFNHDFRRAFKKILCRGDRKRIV

[3] = target: Beta-1 adrenergic receptor (Homo sapiens, UniProt P08588); type: functional
[4] = target: D(1A) dopamine receptor (Homo sapiens, UniProt P21728); type: functional, cell-based
[5] = target: Gamma-aminobutyric acid receptor subunit alpha-1 (Rattus norvegicus, UniProt P62813); type: functional
[6] = target: Glutamate receptor ionotropic, NMDA 1 (Rattus norvegicus, UniProt P35439)
[7] = target: T3, 5-hydroxytryptamine receptor 2C (Homo sapiens, UniProt P28335)
T3 sequence (P28335 whole entry): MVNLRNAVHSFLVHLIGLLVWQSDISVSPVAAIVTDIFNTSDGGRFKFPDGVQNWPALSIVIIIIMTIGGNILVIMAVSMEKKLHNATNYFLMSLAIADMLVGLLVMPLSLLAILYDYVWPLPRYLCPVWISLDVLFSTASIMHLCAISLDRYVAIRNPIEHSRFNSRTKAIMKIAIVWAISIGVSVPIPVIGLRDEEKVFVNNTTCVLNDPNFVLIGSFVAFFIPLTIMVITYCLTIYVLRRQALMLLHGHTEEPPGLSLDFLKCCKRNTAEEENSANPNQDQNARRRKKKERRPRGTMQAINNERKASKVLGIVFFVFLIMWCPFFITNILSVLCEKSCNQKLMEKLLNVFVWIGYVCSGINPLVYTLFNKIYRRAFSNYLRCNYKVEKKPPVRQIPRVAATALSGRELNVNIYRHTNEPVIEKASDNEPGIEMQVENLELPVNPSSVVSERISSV

[8] = target: T4, Thromboxane A2 receptor (Homo sapiens, UniProt P21731)
T4 sequence (P21731 whole entry): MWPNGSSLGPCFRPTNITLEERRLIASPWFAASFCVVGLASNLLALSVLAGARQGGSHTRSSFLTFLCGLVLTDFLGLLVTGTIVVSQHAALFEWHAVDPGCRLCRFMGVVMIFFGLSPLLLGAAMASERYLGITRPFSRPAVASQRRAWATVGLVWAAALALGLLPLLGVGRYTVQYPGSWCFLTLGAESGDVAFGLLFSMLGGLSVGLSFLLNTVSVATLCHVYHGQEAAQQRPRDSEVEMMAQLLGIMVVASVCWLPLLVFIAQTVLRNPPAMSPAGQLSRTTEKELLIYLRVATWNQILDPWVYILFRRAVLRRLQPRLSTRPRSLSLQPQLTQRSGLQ

[9] = target: Sodium-dependent noradrenaline transporter (Homo sapiens, UniProt P23975)
Also: assay procedure not described here.

Sequence of Gamma-aminobutyric acid receptor subunit alpha-1 (P62813 whole entry): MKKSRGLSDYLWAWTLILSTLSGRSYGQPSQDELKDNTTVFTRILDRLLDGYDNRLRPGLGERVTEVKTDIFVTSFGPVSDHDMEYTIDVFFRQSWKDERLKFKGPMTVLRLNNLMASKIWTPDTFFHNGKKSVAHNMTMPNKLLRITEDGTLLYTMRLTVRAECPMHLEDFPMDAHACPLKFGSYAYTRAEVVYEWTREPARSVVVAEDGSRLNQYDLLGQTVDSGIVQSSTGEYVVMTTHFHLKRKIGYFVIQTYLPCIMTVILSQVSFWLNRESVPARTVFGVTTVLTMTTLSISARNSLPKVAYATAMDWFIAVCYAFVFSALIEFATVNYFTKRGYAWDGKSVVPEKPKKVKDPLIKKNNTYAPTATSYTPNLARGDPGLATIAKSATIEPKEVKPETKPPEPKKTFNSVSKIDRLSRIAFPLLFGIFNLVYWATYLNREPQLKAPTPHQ
Sequence of Beta-1 adrenergic receptor (P08588 whole entry): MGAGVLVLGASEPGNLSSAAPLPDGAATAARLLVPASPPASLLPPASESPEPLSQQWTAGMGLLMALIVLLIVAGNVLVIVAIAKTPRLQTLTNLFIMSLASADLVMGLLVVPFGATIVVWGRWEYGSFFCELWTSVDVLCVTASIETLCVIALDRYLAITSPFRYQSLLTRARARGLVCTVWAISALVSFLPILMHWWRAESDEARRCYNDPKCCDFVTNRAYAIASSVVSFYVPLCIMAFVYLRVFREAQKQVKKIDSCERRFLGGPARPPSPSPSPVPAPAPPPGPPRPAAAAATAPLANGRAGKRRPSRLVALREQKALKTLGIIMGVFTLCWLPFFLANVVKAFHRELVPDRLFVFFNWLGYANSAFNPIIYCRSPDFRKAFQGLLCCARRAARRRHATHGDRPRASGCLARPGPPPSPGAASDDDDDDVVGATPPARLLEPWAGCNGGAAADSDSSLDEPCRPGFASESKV
Sequence of D(1A) dopamine receptor (P21728 whole entry): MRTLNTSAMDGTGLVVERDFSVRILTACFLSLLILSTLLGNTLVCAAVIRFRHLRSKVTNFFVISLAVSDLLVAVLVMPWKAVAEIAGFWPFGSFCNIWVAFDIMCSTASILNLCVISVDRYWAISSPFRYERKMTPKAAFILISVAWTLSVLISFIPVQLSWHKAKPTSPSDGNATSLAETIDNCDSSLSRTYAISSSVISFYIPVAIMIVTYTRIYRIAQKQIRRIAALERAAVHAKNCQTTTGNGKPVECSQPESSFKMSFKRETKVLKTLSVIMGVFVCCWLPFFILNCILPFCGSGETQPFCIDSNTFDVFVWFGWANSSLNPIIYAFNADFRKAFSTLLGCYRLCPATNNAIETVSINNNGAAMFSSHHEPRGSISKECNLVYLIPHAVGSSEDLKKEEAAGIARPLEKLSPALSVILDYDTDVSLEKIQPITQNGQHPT
Sequence of Sodium-dependent noradrenaline transporter (P23975 whole entry): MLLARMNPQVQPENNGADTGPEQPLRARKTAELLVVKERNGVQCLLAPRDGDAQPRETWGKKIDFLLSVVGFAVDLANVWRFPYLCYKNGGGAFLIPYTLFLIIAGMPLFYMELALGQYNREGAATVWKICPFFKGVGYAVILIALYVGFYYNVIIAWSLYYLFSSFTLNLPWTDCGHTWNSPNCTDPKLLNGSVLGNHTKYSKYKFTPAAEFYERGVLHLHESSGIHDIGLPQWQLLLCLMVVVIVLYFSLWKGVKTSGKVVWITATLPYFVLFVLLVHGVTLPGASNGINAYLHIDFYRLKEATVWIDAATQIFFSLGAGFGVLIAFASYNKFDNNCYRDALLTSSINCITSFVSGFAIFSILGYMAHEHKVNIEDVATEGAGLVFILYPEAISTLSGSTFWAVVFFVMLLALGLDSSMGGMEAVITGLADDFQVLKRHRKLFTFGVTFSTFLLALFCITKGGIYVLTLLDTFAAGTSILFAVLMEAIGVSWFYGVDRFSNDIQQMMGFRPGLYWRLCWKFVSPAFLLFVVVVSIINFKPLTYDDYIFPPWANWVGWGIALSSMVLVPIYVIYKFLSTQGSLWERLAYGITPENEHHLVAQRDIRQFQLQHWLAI

With CCOC(=O)C1=C(C)NC(C)=C(C(=O)OC)C1c1cccc(Cl)c1Cl (stereo not drawn) [FELODIPINE] the AC50 [1] was > 30 µM, the AC50 [2] was > 10 µM and the AC50 [3] was > 10 µM. For the same compound, the AC50 [4] was > 10 µM, the AC50 [5] was > 10 µM and the AC50 [6] was > 10 µM. For the same compound, the AC50 [7] was > 10 µM, the AC50 [8] was 8.41 µM and the AC50 [9] was > 10 µM.
CN1C(=O)CN=C(c2ccccc2F)c2cc([N+](=O)[O-])ccc21 [FLUNITRAZEPAM] was tested, and the AC50 [1] was > 30 µM, the AC50 [2] was > 10 µM and the AC50 [3] was > 10 µM. The AC50 [4] was > 10 µM, the AC50 [5] was 0.0055 µM and the AC50 [6] was > 10 µM. For the same compound, the AC50 [7] was > 30 µM, the AC50 [8] was > 30 µM and the AC50 [9] was > 10 µM.
CN1C2CCCC1CC(NC(=O)c1nn(C)c3ccccc13)C2 (stereo not drawn) [GRANISETRON] was tested, and the AC50 [1] was > 30 µM, the AC50 [2] was > 10 µM and the AC50 [3] was > 10 µM. For the same compound, the AC50 [4] was > 10 µM, the AC50 [5] was > 10 µM and the AC50 [6] was > 10 µM. For the same compound, the AC50 [8] was > 30 µM and the AC50 [9] was > 10 µM.
In the case of N=C(N)NC(=O)Cc1c(Cl)cccc1Cl [GUANFACINE], the AC50 [1] is reported as 0.0245 µM, the AC50 [3] is reported as > 10 µM and the AC50 [4] is reported as > 30 µM. For the same compound, the AC50 [5] was > 30 µM, the AC50 [6] was > 30 µM and the AC50 [7] was 10 µM. The AC50 [8] was > 30 µM and the AC50 [9] was > 30 µM.
COc1ccc2c3c1O[C@H]1C(=O)CC[C@H]4[C@@H](C2)N(C)CC[C@]314 [HYDROCODONE] was tested, and the AC50 [1] was > 30 µM, the AC50 [2] was > 10 µM and the AC50 [3] was > 10 µM. For the same compound, the AC50 [4] was > 10 µM, the AC50 [5] was > 10 µM and the AC50 [6] was > 10 µM. For the same compound, the AC50 [7] was > 30 µM, the AC50 [8] was > 30 µM and the AC50 [9] was > 10 µM.
For CC1Cc2ccccc2N1NC(=O)c1ccc(Cl)c(S(N)(=O)=O)c1 (stereo not drawn) [INDAPAMIDE], the AC50 [1] was > 30 µM, the AC50 [2] was > 10 µM and the AC50 [3] was > 10 µM. The AC50 [4] was > 10 µM, the AC50 [5] was > 10 µM and the AC50 [6] was > 10 µM. The AC50 [7] was > 30 µM, the AC50 [8] was > 30 µM and the AC50 [9] was > 30 µM.
CCN(CC)CC(=O)Nc1c(C)cccc1C [LIDOCAINE] was tested, and the AC50 [8] was > 30 µM.
In the case of Nc1cc(N2CCCCC2)nc(N)[n+]1[O-] [MINOXIDIL], the AC50 [1] is reported as > 30 µM, the AC50 [2] is reported as > 10 µM and the AC50 [3] is reported as > 30 µM. The AC50 [4] was > 30 µM, the AC50 [5] was > 10 µM and the AC50 [6] was > 10 µM. The AC50 [7] was > 30 µM, the AC50 [8] was > 30 µM and the AC50 [9] was > 30 µM.
For CC1NCCOC1c1ccccc1 (stereo not drawn) [PHENMETRAZINE], the AC50 [1] was 14 µM, the AC50 [2] was > 10 µM and the AC50 [3] was > 10 µM. The AC50 [4] was > 10 µM, the AC50 [5] was > 10 µM and the AC50 [6] was > 10 µM. The AC50 [7] was > 30 µM, the AC50 [8] was > 30 µM and the AC50 [9] was 11.4 µM.
In the case of CC(C)(N)Cc1ccccc1 [PHENTERMINE], the AC50 [1] is reported as > 30 µM, the AC50 [2] is reported as > 10 µM and the AC50 [3] is reported as > 10 µM. For the same compound, the AC50 [4] was > 10 µM, the AC50 [5] was > 10 µM and the AC50 [6] was > 10 µM. The AC50 [7] was > 30 µM, the AC50 [8] was > 30 µM and the AC50 [9] was 5.73 µM.
In the case of SITOSTEROLS, the AC50 [1] is reported as > 30 µM, the AC50 [2] is reported as > 30 µM and the AC50 [3] is reported as > 30 µM. The AC50 [4] was > 30 µM, the AC50 [5] was > 30 µM and the AC50 [6] was > 30 µM. For the same compound, the AC50 [7] was > 30 µM, the AC50 [8] was > 30 µM and the AC50 [9] was > 30 µM.
TEPRENONE was tested, and the AC50 [1] was > 30 µM, the AC50 [2] was > 10 µM and the AC50 [3] was > 30 µM. The AC50 [4] was > 10 µM, the AC50 [5] was > 10 µM and the AC50 [6] was > 10 µM. The AC50 [7] was > 30 µM, the AC50 [8] was > 30 µM and the AC50 [9] was > 30 µM.
